Measured values published in PubChem BioAssay AID252 (DTP/NCI, 2004).
Several values for one entry are separate records, joined by “and”; a condition that tells them apart may be missing. Equal values may be shown once. Toxic doses and inconclusive results are not listed. How the source made its calls: active means survival T/C of 150% or more; inactive means T/C below 125% in these data.

Tested on: BDF1 mice, intracerebral L1210 leukemia, survival T/C
Assay: NCI In Vivo Anticancer Drug Screen. Data for tumor model L1210 Leukemia (intracerebral) in B6D2F1 (BDF1) mice
Conditions: endpoint: mean survival time, higher = longer survival
How it was run: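 Readout is the T/C ratio: survival of compound-treated animals over that of vehicle-treated controls, in mice bearing transplantable tumour.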

Measured: T/C

O=NN(CCCl)C(=O)Nc1cccc([N+](=O)[O-])c1
inactive: dose: 12.0 mg/kg/injection, schedule: Q01DX001 (ip), vehicle: carboxymethylcellulose (CMC) 102 % of control | dose: 18.0 mg/kg/injection, schedule: Q01DX001 (ip), vehicle: carboxymethylcellulose (CMC) 118 % of control | dose: 26.0 mg/kg/injection, schedule: Q01DX001 (ip), vehicle: carboxymethylcellulose (CMC) 117 % of control | dose: 40.0 mg/kg/injection, schedule: Q01DX001 (ip), vehicle: carboxymethylcellulose (CMC) 115 % of control

O=NN(CCCl)C(=O)NC(Cc1ccccc1)C(=O)O (centres undefined)
inactive: dose: 18.0 mg/kg/injection, schedule: Q01DX001 (ip), vehicle: gum acacia 119 % of control | dose: 28.0 mg/kg/injection, schedule: Q01DX001 (ip), vehicle: gum acacia 119 % of control | dose: 42.0 mg/kg/injection, schedule: Q01DX001 (ip), vehicle: gum acacia 117 % of control | dose: 63.0 mg/kg/injection, schedule: Q01DX001 (ip), vehicle: gum acacia 120 % of control | dose: 112.0 mg/kg/injection, schedule: Q01DX001 (ip), vehicle: gum acacia 103 % of control

O=C1N[C@@H]([C@H]2CC[C@H](Cl)CN2)C(=O)N[C@H]1[C@H]1CC[C@H](Cl)CN1
inactive: dose: 0.5 mg/kg/injection, schedule: Q01DX009 (ip), vehicle: saline 110 % of control | dose: 1.0 mg/kg/injection, schedule: Q01DX001 (ip), vehicle: saline 102 % of control | dose: 1.0 mg/kg/injection, schedule: Q01DX009 (ip), vehicle: saline 118 % of control | dose: 2.0 mg/kg/injection, schedule: Q01DX001 (ip), vehicle: saline 103 % of control and 100 % of control | dose: 4.0 mg/kg/injection, schedule: Q01DX001 (ip), vehicle: saline 103 % of control and 119 % of control | dose: 8.0 mg/kg/injection, schedule: Q01DX001 (ip), vehicle: saline 105 % of control and 123 % of control

O=NN(CCBr)C(=O)NCCBr
inactive: dose: 133.0 mg/kg/injection, schedule: Q01DX001 (ip), vehicle: carboxymethylcellulose (CMC) 112 % of control

O=NN(CCF)C(=O)Nc1ccccc1
inactive: dose: 8.0 mg/kg/injection, schedule: Q01DX001 (ip), vehicle: other 120 % of control

O=CC(NC(=O)N(CCCl)N=O)C(O)C(O)C(O)CO (centres undefined)
inactive: dose: 4.0 mg/kg/injection, schedule: Q01DX001 (ip), vehicle: carboxymethylcellulose (CMC) 111 % of control | dose: 6.0 mg/kg/injection, schedule: Q01DX001 (ip), vehicle: carboxymethylcellulose (CMC) 111 % of control | dose: 9.0 mg/kg/injection, schedule: Q01DX001 (ip), vehicle: carboxymethylcellulose (CMC) 112 % of control | dose: 9.0 mg/kg/injection, schedule: Q01DX001 (ip), vehicle: saline 110 % of control | dose: 13.0 mg/kg/injection, schedule: Q01DX001 (ip), vehicle: carboxymethylcellulose (CMC) 123 % of control | dose: 13.0 mg/kg/injection, schedule: Q01DX001 (ip), vehicle: saline 109 % of control | dose: 20.0 mg/kg/injection, schedule: Q01DX001 (ip), vehicle: carboxymethylcellulose (CMC) 119 % of control | dose: 20.0 mg/kg/injection, schedule: Q01DX001 (ip), vehicle: saline 112 % of control | dose: 30.0 mg/kg/injection, schedule: Q01DX001 (ip), vehicle: carboxymethylcellulose (CMC) 119 % of control | dose: 30.0 mg/kg/injection, schedule: Q01DX001 (ip), vehicle: saline 117 % of control | dose: 45.0 mg/kg/injection, schedule: Q01DX001 (ip), vehicle: carboxymethylcellulose (CMC) 111 % of control | dose: 45.0 mg/kg/injection, schedule: Q01DX001 (ip), vehicle: saline 106 % of control

COc1cc(NS(C)(=O)=O)ccc1Nc1c2ccc([N+](=O)[O-])cc2nc2c(C)cccc12
inactive: dose: 2.5 mg/kg/injection, schedule: Q01DX009 (ip), vehicle: saline 93 % of control | dose: 2.5 mg/kg/injection, schedule: Q01DX009 (sc), vehicle: saline 93 % of control | dose: 5.0 mg/kg/injection, schedule: Q01DX009 (ip), vehicle: saline 103 % of control | dose: 5.0 mg/kg/injection, schedule: Q01DX009 (sc), vehicle: saline 96 % of control | dose: 10.0 mg/kg/injection, schedule: Q01DX009 (sc), vehicle: saline 93 % of control

N#Cc1ccc(NC(=O)N(CCCl)N=O)cc1
inactive: dose: 9.37 mg/kg/injection, schedule: Q01DX001 (ip), vehicle: carboxymethylcellulose (CMC) 95 % of control | dose: 18.75 mg/kg/injection, schedule: Q01DX001 (ip), vehicle: carboxymethylcellulose (CMC) 91 % of control | dose: 37.5 mg/kg/injection, schedule: Q01DX001 (ip), vehicle: carboxymethylcellulose (CMC) 104 % of control | dose: 75.0 mg/kg/injection, schedule: Q01DX001 (ip), vehicle: carboxymethylcellulose (CMC) 102 % of control | dose: 150.0 mg/kg/injection, schedule: Q01DX001 (ip), vehicle: carboxymethylcellulose (CMC) 90 % of control
